Test results as given in patent US20240299412A1, “DRUG FORMULATIONS OF 4-(3,3-DIFLUORO-2,2-DIMETHYL-PROPANOYL) -3,5-DIHYDRO-2H-PYRIDO[3,4-f][1,4]OXAZEPINE-9-CARBONITRILE” (Genzyme Corporation, priority 2023, published 2024).
≈ marks a conversion by molar mass, not a printed value.

What was measured:
Type in all cases: physicochemical
[1] = Dynamic vapor sorption (DVS)
Method: DVS. DVS was measured via a SMS (Surface Measurement Systems) DVS Intrinsic. The relative humidity at 25° C. were calibrated against deliquescence point of LiCl, Mg(NO3)2 and KCl.
(onset temperature). Considering the low TGA weight loss and single sharp DSC endotherm, Form A was postulated to be an anhydrate. […] However Form A has been prepared with much lower volatile content (0.1% or lower).

[2] = Solution stability in pH buffers; conditions: 37° C.; for Purity vs. Initial (%): ~0.5 mg/mL, Clear
Method: Solution stability study was performed in pH 2.0/4.0/6.0/7.0 (24 hrs) and pH 8.0 (24 hrs and 96 hrs) buffers. Solids were dissolved with pH buffers with target conc. of ˜0.5 mg/mL to form clear solutions and stored at 37° C. for 24 hrs or 96 hrs.

[3] = 24-Hrs solubility in pH buffers; conditions: for solubility at 24 h: aqueous buffer, thermodynamic from solid, Turbid; for Final Form: residual solid; for solubility at 24 h / Final Form: 24 hrs
[4] = Kinetic solubility in bio-relevant media and H2O; conditions: for Final Form: residual solid, FaSSIF (pH 6.5), 37° C.
Method: Solids were suspended in FaSSIF, FeSSIF, SGF and H2O with target conc. of ˜10 mg/mL. The suspensions were agitated on a rolling incubator at 25 rpm (in the incubator set at 37° C.) for 1, 4 and 24 hrs. At each time point, 1 mL of the suspension was pipetted out for centrifugation at 15000 rpm (3 min) and filtration through 0.45 μm membrane to obtain supernatant for HPLC solubility and pH tests, the residual solids were analyzed by XRPD.

[5] = pH 7.0 (50 mM Phosphate), 24 hrs
[6] = pH 8.0 (50 mM Phosphate), 24 hrs
[7] = pH 8.0 (50 mM Phosphate), 96 hrs

CC(C)(C(=O)N1CCOc2c(C#N)cncc2C1)C(F)F [Form A, 4-(3,3-difluoro-2,2-dimethyl-propanoyl)-3,5-dihydro-2H-pyrido[3,4-f][1,4]oxazepine-9-carbonitrile]
water uptake (DVS) ([1]; 25 C.°/80% RH): 0.024%
form change after DVS test (XRPD) ([1]; after DVS test): no form change
API (RRT 1.00) % Area ([2]; pH 2.0 (50 mM HCl—KCl), 24 hrs): 84.93 % Area
Imp. 1 (RRT 0.66) % Area ([2]; pH 2.0 (50 mM HCl—KCl), 24 hrs): 0.15 % Area
Imp. 1 (RRT 0.70) % Area ([2]; pH 2.0 (50 mM HCl—KCl), 24 hrs): 0.67 % Area
Imp. 1 (RRT 0.76) % Area ([2]; pH 2.0 (50 mM HCl—KCl), 24 hrs): 14.25 % Area
Imp. 1 (RRT 1.05) % Area ([2]; pH 2.0 (50 mM HCl—KCl), 24 hrs): — (—: <0.05 area %)
Purity vs. Initial (%) ([2]; pH 2.0 (50 mM HCl—KCl), 24 hrs): 85.1%
degradation in solution ([2]; pH 2.0 and pH 4.0 buffers, 24 hrs): Degradation was observed
API (RRT 1.00) % Area ([2]; pH 4.0 (50 mM Citrate), 24 hrs): 98.42 % Area
Imp. 1 (RRT 0.66) % Area ([2]; pH 4.0 (50 mM Citrate), 24 hrs): 0.15 % Area
Imp. 1 (RRT 0.70) % Area ([2]; pH 4.0 (50 mM Citrate), 24 hrs): — (—: <0.05 area %)
Imp. 1 (RRT 0.76) % Area ([2]; pH 4.0 (50 mM Citrate), 24 hrs): 0.38 % Area
Imp. 1 (RRT 1.05) % Area ([2]; pH 4.0 (50 mM Citrate), 24 hrs): 0.06 % Area
Purity vs. Initial (%) ([2]; pH 4.0 (50 mM Citrate), 24 hrs): 98.5%
API (RRT 1.00) % Area ([2]; pH 6.0 (50 mM Citrate), 24 hrs): 99.75 % Area
Imp. 1 (RRT 0.66) % Area ([2]; pH 6.0 (50 mM Citrate), 24 hrs): 0.13 % Area
Imp. 1 (RRT 0.70) % Area ([2]; pH 6.0 (50 mM Citrate), 24 hrs): — (—: <0.05 area %)
Imp. 1 (RRT 0.76) % Area ([2]; pH 6.0 (50 mM Citrate), 24 hrs): 0.06 % Area
Imp. 1 (RRT 1.05) % Area ([2]; pH 6.0 (50 mM Citrate), 24 hrs): 0.06 % Area
Purity vs. Initial (%) ([2]; pH 6.0 (50 mM Citrate), 24 hrs): 99.8%
API (RRT 1.00) % Area [2, 5]: 99.78 % Area
Imp. 1 (RRT 0.66) % Area [2, 5]: 0.15 % Area
Imp. 1 (RRT 0.70) % Area [2, 5]: — (—: <0.05 area %)
Imp. 1 (RRT 0.76) % Area [2, 5]: — (—: <0.05 area %)
Imp. 1 (RRT 1.05) % Area [2, 5]: 0.07 % Area
Purity vs. Initial (%) [2, 5]: 99.9%
API (RRT 1.00) % Area [2, 6]: 99.81 % Area
Imp. 1 (RRT 0.66) % Area [2, 6]: 0.13 % Area
Imp. 1 (RRT 0.70) % Area [2, 6]: — (—: <0.05 area %)
Imp. 1 (RRT 0.76) % Area [2, 6]: — (—: <0.05 area %)
Imp. 1 (RRT 1.05) % Area [2, 6]: 0.06 % Area
Purity vs. Initial (%) [2, 6]: 100.0%
API (RRT 1.00) % Area [2, 7]: 99.83 % Area
Imp. 1 (RRT 0.66) % Area [2, 7]: 0.13 % Area
Imp. 1 (RRT 0.70) % Area [2, 7]: — (—: <0.05 area %)
Imp. 1 (RRT 0.76) % Area [2, 7]: — (—: <0.05 area %)
Imp. 1 (RRT 1.05) % Area [2, 7]: 0.04 % Area
Purity vs. Initial (%) [2, 7]: 100.0%
solubility at 24 h ([3]; 50 mM HCl-KCl buffer, pH 2.0 (50 mM HCl—KCl), final pH 2.3): 1.8 mg/mL (≈ 6100 µM)
solubility at 24 h ([3]; 50 mM citrate buffer, pH 4.0 (50 mM Citrate), final pH 4.1): 0.84 mg/mL (≈ 2840 µM)
solubility at 24 h ([3]; 50 mM citrate buffer, pH 6.0 (50 mM Citrate), final pH 5.9): 0.75 mg/mL (≈ 2540 µM)
solubility at 24 h ([3]; 50 mM phosphate buffer, pH 7.0 (50 mM Phosphate), final pH 6.9): 0.9 mg/mL (≈ 3050 µM)
solubility at 24 h ([3]; 50 mM phosphate buffer, pH 8.0 (50 mM Phosphate), final pH 7.8): 0.81 mg/mL (≈ 2740 µM)
form change after equilibrium solubility evaluation ([3]; pH buffers): no form change
Final Form ([3]; pH 2.0 (50 mM HCl—KCl)): Form A
Final Form ([3]; pH 4.0 (50 mM Citrate)): Form A
Final Form ([3]; pH 6.0 (50 mM Citrate)): Form A
Final Form ([3]; pH 7.0 (50 mM Phosphate)): Form A
Final Form ([3]; pH 8.0 (50 mM Phosphate)): Form A
form change after kinetic solubility test ([4]; bio-relevant media or H2O): No form change
Final Form ([4]; 1 hr): Form A
Final Form ([4]; 4 hr): Form A
Final Form ([4]; 24 hr): Form A
